How the values were obtained:
sputum cell counts = assay: Cell count in induced sputum; format: in vivo, human; settings: p < 0.05
Protocol: All assessment timings were based on the morning dose. Pre-dose on Days 1 and 28 of each treatment period, blood samples were taken for pharmacokinetic analyses, followed by forced oscillation (including slow vital capacity manoeuvres for inspiratory capacity [IC] and vital capacity [VC]), spirometry (forced expiratory volume in 1 s [FEV1] and forced vital capacity [FVC]), and the COPD Assessment Test (CAT). Blood samples were also taken up to 12 h post-dose on Days 1 and 28 for pharmacokinetic analyses, with blood samples for biomarker assessment pre-dose on Day 1 and 2 h post-dose on Day 28, and spirometry pre-dose on Days 20 and 24. […]
Fold-change from baseline in cell counts, target biomarkers in sputum and blood, and PIP3 were log-transformed and analysed using an analysis of covariance (ANCOVA) model, with treatment, patient, and period as fixed effects, and baseline value as covariate. Changes from baseline in spirometry, forced oscillation and CAT endpoints were analysed using a similar ANCOVA model, but without log transformation. Rescue medication data were analysed using an analysis of variance model, including treatment, period and patient as fixed effects. […]
To induce sputum, patients with FEV1 ≥0.8 L inhaled nebulised hypertonic saline at increasing concentrations (3%, then 4% and finally 5%), with FEV1 monitored for safety after each concentration. […]

proteins in sputum = assay: Olink proteomics in sputum (Target 96 Inflammation and Target 48 Cytokine panels); format: in vivo, human
Protocol: For the proteomics evaluation, sputum samples were run on the Target 48 Cytokine panel, and the Target 96 Inflammation panel (Olink Protemics, Uppsala, Sweden). In the Target 48 Cytokine panel, 45 cytokines were quantified in terms of their absolute concentration. For the Target 96 Inflammation panel, 92 proteins involved in inflammation processes were evaluated, with the results expressed as Normalized Protein eXpression (NPX; the manufacturer’s arbitrary unit, in Log2 scale). […] In the statistical model, using sputum Target 96 and 48 data, change from pre-dose to post-dose expression were used as dependent variable, and patient, period, treatment and pre-dose expression as independent variable.

[1] = test system: genes in blood and sputum; assay: Transcriptomics (RNA-seq) in blood and sputum; format: in vivo, human
Protocol: PAXgene RNA blood samples and induced sputum samples collected in Trizol were analysed at Almac Diagnostic Services (Craigavon, Northern Ireland, UK). RNA extraction and quality assessment of the PAXGene blood and sputum samples were performed, prior to downstream next generation sequencing (NGS). To minimise any technical variability, samples were randomised into processing batches for RNA extraction and NGS library preparation.
After extraction, all RNA underwent quality assessment. PAXGene RNA samples were assessed using a combination of Nanodrop (quantity) and the Agilent Tapestation (integrity), and Sputum RNA samples were assessed using the Qubit RNA assay (quantity) and Agilent Tapestation (integrity). Nanodrop was used for quantity assessment of RNA extracted from sputum in order to preserve a sample for downstream library preparation input.
Upon successful completion of the quality assessment, samples underwent library preparation using Kapa RNA Hyperprep with Riboerase kit. PAXGene Blood RNA samples were also treated with globin depletion oligos. Following library preparation, all generated libraries underwent quality assessment (quantification via Quant-iT dsDNA high-sensitivity assay, and fragment size assessment via the Agilent Tapestation) before being loaded on to a NovaSeq 6000 and sequenced with a total read length of 2x76bp, to a read budget of 50 million paired end reads (total 100 million reads) per sample. Processing control samples were included in the processing batch. Upon completion of sequencing, the quality of sequencing was assessed for the following parameters: clusters passing filter, Q30 scores, error rate, cluster density and read distribution.
Raw sequence data in FASTQ format were subject to a number of quality control assessment steps hosted on the DNAnexus cloud platform. Basic sequencing metrics such as GC content were calculated from unaligned reads using FastQC. Potential ribosomal RNA (rRNA) contamination was assessed using the Burrows-Wheeler Aligner (BWA) and samtools flagstat to determine the number of reads aligning to a ribosomal RNA (rRNA) sequence database. Read alignment to the human reference genome GRCh38 was then performed using StarAlign, with outputs used to calculate post-alignment quality control (QC) metrics such as duplication rate, calculated using Picard MarkDuplicates and a housekeeping coverage metric using a custom script. […] Both pre- and post alignment QC metrics were then reviewed to check for potential problems originating from the sequencing run or starting library material.
The aim was to identify genes that were differentially expressed in response to treatment with CHF6523 from blood and sputum samples.
The ANCOVA model was specified as change from pre-dose to post-dose expression as dependent variable. The independent variables were treatment (reference: placebo), patient, period, and pre-dose expression.
Functional enrichment was performed on those differentially expressed gene lists that had at least 20 genes with FDR<0.05 using ToppFun enrichment on the ToppGene website (https://toppgene.cchmc.org/enrichment.jsp, accessed 05 May 2023 [4]). The background of the enrichment used were those genes that were available in the original datamatrix.

[2] = Cough episodes: daily diary and visual analogue scale; format: in vivo, human; settings: for Mean cough VAS score (95% CI): VAS 100 mm, 0 no cough, 100 worst cough ever
Protocol: (§1) Fold-change from baseline in cell counts, target biomarkers in sputum and blood, and PIP3 were log-transformed and analysed using an analysis of covariance (ANCOVA) model, with treatment, patient, and period as fixed effects, and baseline value as covariate. Changes from baseline in spirometry, forced oscillation and CAT endpoints were analysed using a similar ANCOVA model, but without log transformation. Rescue medication data were analysed using an analysis of variance model, including treatment, period and patient as fixed effects. Other data, including the proportion of days on which patients coughed and the cough VAS results, are presented descriptively only. Further details, including the transcriptomics, mass-spectrometry and Olink proteomics, bioinformatics and multi-omic data integration are in the supplement.

PI3Kδ = PI3Kδ (Homo sapiens, UniProt O00329); assay: Target engagement: PIP3 in induced sputum; format: in vivo; design: from tissue; host or cells: induced sputum of COPD patients (in vivo dosing by inhalation)
Protocol: All assessment timings were based on the morning dose. Pre-dose on Days 1 and 28 of each treatment period, blood samples were taken for pharmacokinetic analyses, followed by forced oscillation (including slow vital capacity manoeuvres for inspiratory capacity [IC] and vital capacity [VC]), spirometry (forced expiratory volume in 1 s [FEV1] and forced vital capacity [FVC]), and the COPD Assessment Test (CAT). Blood samples were also taken up to 12 h post-dose on Days 1 and 28 for pharmacokinetic analyses, with blood samples for biomarker assessment pre-dose on Day 1 and 2 h post-dose on Day 28, and spirometry pre-dose on Days 20 and 24. Sputum was induced prior to each treatment period for baseline determination of biomarkers, and post-dose on Day 20 for collection of phosphatidylinositol (3,4,5)-trisphosphate (PIP3), and on Days 24 and 28 for collection of biomarkers.
as §1

Sequence of PI3Kδ (O00329 whole entry): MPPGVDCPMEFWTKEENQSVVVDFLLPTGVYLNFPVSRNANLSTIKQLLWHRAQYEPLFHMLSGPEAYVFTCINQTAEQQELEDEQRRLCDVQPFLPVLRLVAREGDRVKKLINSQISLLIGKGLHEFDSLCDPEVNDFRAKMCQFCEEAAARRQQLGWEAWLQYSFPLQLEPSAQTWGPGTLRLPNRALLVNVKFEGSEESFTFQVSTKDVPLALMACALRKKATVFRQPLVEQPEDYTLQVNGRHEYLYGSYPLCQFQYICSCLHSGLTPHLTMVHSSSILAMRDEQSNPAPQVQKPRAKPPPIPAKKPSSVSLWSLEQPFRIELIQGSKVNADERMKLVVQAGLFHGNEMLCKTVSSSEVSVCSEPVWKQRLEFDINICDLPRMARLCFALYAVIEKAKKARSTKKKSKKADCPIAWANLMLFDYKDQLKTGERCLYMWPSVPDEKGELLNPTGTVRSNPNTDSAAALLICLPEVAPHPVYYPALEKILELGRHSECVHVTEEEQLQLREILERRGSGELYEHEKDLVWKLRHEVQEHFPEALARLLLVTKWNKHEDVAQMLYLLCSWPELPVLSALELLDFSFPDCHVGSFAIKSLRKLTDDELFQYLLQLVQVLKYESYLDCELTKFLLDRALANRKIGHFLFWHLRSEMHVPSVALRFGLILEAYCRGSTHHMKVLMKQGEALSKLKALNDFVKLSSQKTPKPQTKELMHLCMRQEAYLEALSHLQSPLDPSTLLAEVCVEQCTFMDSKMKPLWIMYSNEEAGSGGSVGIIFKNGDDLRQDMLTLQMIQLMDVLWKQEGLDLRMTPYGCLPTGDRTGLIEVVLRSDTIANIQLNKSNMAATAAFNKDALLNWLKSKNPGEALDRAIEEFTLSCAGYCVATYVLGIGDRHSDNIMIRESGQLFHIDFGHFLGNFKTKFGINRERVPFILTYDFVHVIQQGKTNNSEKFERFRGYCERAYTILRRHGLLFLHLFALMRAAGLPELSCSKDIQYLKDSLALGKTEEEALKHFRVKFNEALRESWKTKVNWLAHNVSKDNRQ
Sequence of PI3Kδ (P27986 whole entry partner): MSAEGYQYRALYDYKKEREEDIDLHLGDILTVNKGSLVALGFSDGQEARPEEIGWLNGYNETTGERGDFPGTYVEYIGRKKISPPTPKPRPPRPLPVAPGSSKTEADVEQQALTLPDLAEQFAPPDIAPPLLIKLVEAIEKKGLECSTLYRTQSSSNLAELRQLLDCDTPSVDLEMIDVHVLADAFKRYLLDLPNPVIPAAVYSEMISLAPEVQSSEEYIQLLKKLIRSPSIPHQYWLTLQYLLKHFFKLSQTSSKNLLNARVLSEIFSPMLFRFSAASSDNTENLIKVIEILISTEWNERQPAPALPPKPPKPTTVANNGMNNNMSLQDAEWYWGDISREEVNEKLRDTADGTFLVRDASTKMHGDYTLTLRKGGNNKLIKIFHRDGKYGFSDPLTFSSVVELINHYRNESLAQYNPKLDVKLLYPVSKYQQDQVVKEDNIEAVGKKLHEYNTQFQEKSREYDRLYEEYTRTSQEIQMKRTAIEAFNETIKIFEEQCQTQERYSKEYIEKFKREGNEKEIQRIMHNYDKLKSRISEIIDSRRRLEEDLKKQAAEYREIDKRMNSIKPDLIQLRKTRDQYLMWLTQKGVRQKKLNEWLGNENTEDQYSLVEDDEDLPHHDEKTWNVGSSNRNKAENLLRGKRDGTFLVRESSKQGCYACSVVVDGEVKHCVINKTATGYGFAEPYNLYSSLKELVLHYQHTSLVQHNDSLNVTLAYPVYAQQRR

## C[C@@H](c1oc(=O)c2ccccc2c1-c1cccc(CN2CCN(C)CC2)c1)n1nc(-c2cncc(O)c2)c2c(N)ncnc21 [CHF6523]
Sputum cell counts
  CHF6523–placebo differences in sputum cell counts: no statistically significant
Proteins in sputum
  Fold change in the Olink panels: IL-1B: 0.771
  Fold change in the Olink panels: IL-6: 1.516
  Fold change in the Olink panels: IL-8: 1.151
  Fold change in the Olink panels: MCP-1: 0.732
  Fold change in the Olink panels: TNF: 0.821
Proteins in sputum; FDR < 0.05
  Proteins significantly modulated by treatment, of the 74 evaluated: none were significantly modulated by treatment
[1]; blood, RNA-seq, 24 patients
  Differentially expressed genes in blood: No differentially expressed genes
[1]; sputum
  |log2FC| of the six genes with |log2FC| >1: 1.019–1.067
[1]; sputum, FDR = 0.0155
  TLR1 log2FC: 0.71
[1]; sputum, FDR = 0.0418
  TLR10 log2FC: 0.48
[1]; sputum, FDR = 0.0451
  TLR6 log2FC: 0.52
[1]; sputum, RNA-seq, FDR < 0.05, more than 38,000 genes evaluated
  Genes significantly differentially expressed in sputum: 126 genes
[1]; sputum, of 126
  Differentially expressed genes in sputum that were upregulated: 119 genes
[2]; daily diary, 2 mg twice daily inhaled, 95% CI 63.5%, 84.5%
  Days on which patients coughed, adjusted mean: 74.0%
[2]; evening
  Mean cough VAS score (95% CI): 31.3 (22.1, 40.4) mm
[2]; in vivo
  Cough events not resolving within 1 h after inhalation: 3.2%
[2]; morning
  Mean cough VAS score (95% CI): 30.3 (95% CI 21.3, 39.3) mm
PI3Kδ; Day 20
  Sputum PIP3 adjusted geometric mean fold change from baseline [95% CI]: 0.703 [95% CI 0.606, 0.814]
PI3Kδ; Day 20, 2 mg twice daily inhaled
  Decrease from baseline in sputum PIP3 levels: 29.7%
PI3Kδ; Day 20, p = 0.001
  Sputum PIP3 adjusted ratio CHF6523 vs placebo [95% CI]: 0.705 [0.580, 0.856]
  Sputum PIP3 difference between groups (reduction vs. placebo): 29.5%
